We go through 4 compounds from patent publication US9517231B2, “Methods and pharmaceutical compositions for the treatment of symptoms of anxiety and panic using beta adrenergic receptor antagonist and muscarinic receptor antagonist combinations” (priority 2014, dated 2016).

For series [1] the following is noted: oral atenolol 50 mg, oral scopolamine HBr 0.3 mg; baseline and during sauna heat; cited from earlier work.
The target in series [2] is muscarinic acetylcholine receptors, all five human receptor subtypes. As to conditions: cited from earlier work.
Series [3] is described as follows: taste and mouth paresthesia of dose forms in humans.
For series [4] the following is noted: oral atenolol 50-200 mg; ~10 bpm on placebo; cited from earlier work.
The conditions of series [5]: cited from earlier work.
For series [6] the following is noted: healthy volunteers, CO2 inhalation; cited from earlier work.
Setting [7] is: oral 40 mg one hour prior to TSST.
The mark [8] stands for this setting: liquid compositions, under or on the tongue.
The mark [9] stands for this setting: sublingual solid dose forms, HCl.

Molecules are shown by their SMILES. Entries after “also recorded” stand apart in the source; their conditions may differ. Where a name gives a salt, the structure may show the parent alone. Read-outs that look alike come from different tables or passages of the source.

As for `CN1[C@@H]2C[C@@H](OC(=O)[C@H](CO)c3ccccc3)C[C@H]1[C@@H]1O[C@@H]12` [scopolamine], the “cardiovascular effects (heart rate, blood pressure)” value in series [1] is “essentially no effect”. The Ki (in general, a dissociation constant, usually derived from enzyme kinetics or from competition with a known ligand) in series [2] is 0.34 to 5.3 nM.

As for `CC(C)NCC(O)COc1ccc(CC(N)=O)cc1` (stereo not drawn) [atenolol], in series [1], the “cardiovascular effects (heart rate, blood pressure)” value is “reduced heart rate and blood pressure”. In series [3] (sublingual solid dose forms), the mouth/tongue paresthesia result is “neither property was observed; also recorded: lacked these undesirable characteristics; also recorded: do not produce mouth paresthesia” and the taste result is recorded as “neither property was observed; also recorded: lacked these undesirable characteristics; also recorded: do not have a taste”. Further, the suppresses heart rate in series [4] is 23-24 bpm.

With `CC(C)NCC(O)COc1cccc2ccccc12` (stereo not drawn) [propranolol], in series [5] (80 mg one hour prior to TSST), the “BP or subjective stress” value was “did not significantly affect”, the heart rate result is “significantly reduced” and the salivary cortisol entry is “increased”. For the same compound, the salivary cortisol response entry in series [5] (daily oral 80 mg) is given as “did not affect”. In series [5] (setting [7]), the “cognitive flexibility during stress” value is given as “enhanced”, the heart rate result is recorded as “significantly reduced” and the systolic blood pressure entry was “reduced”. Moreover, in series [3] (sublingual solid dose forms), the mouth/tongue paresthesia result was “Paresthesia” and the taste result is recorded as “undesirable taste”. For the same compound, in series [6], the heart rate entry is reported as “significantly decreased” and the psychic anxiolytic benefit result is recorded as “did not provide”.

With `CC(C)NCC(O)COc1cccc2ccccc12` (stereo not drawn) [Propranolol HCl], in series [3] (setting [8]), the mouth paresthesia result is given as “produces mouth paresthesia”; the taste result was ““acidic” and “medicine” taste”. For the same compound, in series [3] (setting [9]), the mouth/tongue paresthesia entry is “delayed paresthesia of the tongue”; the taste result was ““acidic” and “medicine” taste”.
